Data published in article PMC5296257 (Bioorganic & medicinal chemistry letters, 2017).

Tests used:
[1] = tested on: T. brucei BSF 90-13 parasites; experiment: Annexin V-FITC labeling; format: cell-based; settings: BSF trypanosomes, 6 h exposure at compound's EC50 value; control line 463
[2] = Mammalian cytotoxicity on non-immortalized IMR90 cells; format: cell-based; settings: human
[3] = tested on: L. amazonensis promastigote form parasites; experiment: L. amazonensis promastigote viability; format: cell-based; settings: SI = IMR90 EC50/parasite EC50
[4] = tested on: T. brucei bloodstream form (BSF); experiment: T. brucei bloodstream form parasite viability; format: cell-based, Trypanosoma brucei; settings: SI = IMR90 EC50/parasite EC50
[5] = tested on: C/EBP-homologous protein (CHOP); settings: cited from earlier work

SMILES | Annexin-V labeling, relative fluorescence median signal [1] | EC50 [2] | L. amazonensis selectivity index, SI [3] | T. brucei selectivity index, SI [4] | mammalian CHOP activity [5]
CC(C)(C)C1CCN(S(=O)(=O)c2ccc(NC(=O)c3ccc([N+](=O)[O-])o3)cc2)CC1 [Compound 5] | 1225 | > 25 µM | > 18 | > 833 | –
O=C(Nc1ccc(S(=O)(=O)N2CCCCC2)cc1)c1ccc([N+](=O)[O-])o1 [Compound 2] | – | > 25 µM | > 2 | >114 | –
O=C(Nc1ccc(S(=O)(=O)N2CCOCC2)cc1)c1cccs1 [Compound 15] | – | > 25 µM | – | – | –
O=C(Nc1ccc(S(=O)(=O)N2CCC(F)CC2)cc1)c1ccc([N+](=O)[O-])o1 [Compound 9] | – | > 25 µM | > 3 | > 60 | –
CC1(C)CCN(S(=O)(=O)c2ccc(NC(=O)c3cccc([N+](=O)[O-])c3)cc2)CC1 [Compound 19] | – | > 25 µM | > 2 | > 4 | no mammalian CHOP activity
O=C(Nc1ccc(S(=O)(=O)N2CCC3(CCCCC3)CC2)cc1)c1ccc([N+](=O)[O-])o1 [Compound 6] | – | > 25 µM | > 17 | > 833 | –
O=C(Nc1ccc(S(=O)(=O)N2CCOCC2)cc1)c1ccccc1 [Compound 16] | – | > 25 µM | – | – | –
CC1CCN(S(=O)(=O)c2ccc(NC(=O)c3ccc([N+](=O)[O-])o3)cc2)CC1 [Compound 3] | – | > 25 µM | > 3 | > 208 | –
Cc1ccc(C(=O)Nc2ccc(S(=O)(=O)N3CCOCC3)cc2)o1 [Compound 17] | – | > 25 µM | – | – | –
CC1(C)CCN(S(=O)(=O)c2cccc(NC(=O)c3ccc([N+](=O)[O-])o3)c2)CC1 [Compound 26] | – | > 25 µM | > 250 | > 78 | –
O=C(Nc1ccc(S(=O)(=O)N2CCOCC2)cc1)c1ccc([N+](=O)[O-])o1 [Compound 1] | – | > 25 µM | > 8 | > 54 | –
CC(C)(C)C1CCN(S(=O)(=O)c2ccc(NC(=O)c3ccc([N+](=O)[O-])s3)cc2)CC1 [Compound 23] | – | > 25 µM | > 250 | > 833 | –
O=C(Nc1cccc(S(=O)(=O)N2CCOCC2)c1)c1ccc([N+](=O)[O-])o1 [Compound 29] | – | > 25 µM | > 28 | > 17 | –
CC1(C)CCN(S(=O)(=O)c2cccc(NC(=O)c3ccco3)c2)CC1 [Compound 27] | – | > 25 µM | > 21 | > 5 | –
O=C(Nc1ccc(S(=O)(=O)N2CCOCC2)cc1)c1ccc([N+](=O)[O-])cc1 [Compound 18] | – | > 25 µM | – | – | –
N=C1CCN(S(=O)(=O)c2ccc(NC(=O)c3ccc([N+](=O)[O-])o3)cc2)CC1 [Compound 10] | – | > 25 µM | > 2 | > 34 | –
O=C(Nc1ccc(S(=O)(=O)N2CCOCC2)cc1)c1ccco1 [Compound 14] | – | > 25 µM | – | – | –
CC1(C)CCN(S(=O)(=O)c2ccc(NC(=O)c3ccc([N+](=O)[O-])o3)cc2)CC1 [Compound 4] | – | > 25 µM | > 89 | > 278 | –
O=C(Nc1ccc(S(=O)(=O)C2CCCCC2)cc1)c1ccc([N+](=O)[O-])o1 [Compound 11] | – | > 25 µM | > 16 | > 51 | –
CC1(C)CCN(S(=O)(=O)c2ccc(NC(=O)c3ccc(C(F)(F)F)o3)cc2)CC1 [Compound 20] | – | > 25 µM | > 2 | > 3 | no mammalian CHOP activity
O=C(Nc1ccc(S(=O)(=O)c2ccccc2)cc1)c1ccc([N+](=O)[O-])o1 [Compound 13] | – | > 25 µM | > 6 | > 227 | –
CC1(C)CCN(S(=O)(=O)c2cccc(NC(=O)c3ccc([N+](=O)[O-])s3)c2)CC1 [Compound 25] | – | > 25 µM | > 19 | > 556 | –
O=C(Nc1ccc(S(=O)(=O)N2CCC(O)CC2)cc1)c1ccc([N+](=O)[O-])o1 [Compound 7] | – | > 25 µM | > 6 | > 81 | –
O=C(Nc1ccc(S(=O)(=O)C2=CCOC=C2)cc1)c1ccc([N+](=O)[O-])o1 [Compound 12] | – | > 25 µM | > 83 | > 47 | –
O=C(Nc1ccc(S(=O)(=O)N2CCOCC2)cc1)c1ccc([N+](=O)[O-])s1 [Compound 21] | – | > 25 µM | > 19 | > 417 | –
CC1(C)CCN(S(=O)(=O)c2cccc(NC(=O)c3cccc([N+](=O)[O-])c3)c2)CC1 [Compound 28] | – | > 25 µM | > 8 | > 2 | –
CC1(C)CCN(S(=O)(=O)c2ccc(NC(=O)c3ccc([N+](=O)[O-])s3)cc2)CC1 [Compound 22] | – | > 25 µM | > 250 | > 2500 | –
O=C(Nc1ccc(S(=O)(=O)N2CCC(Cl)CC2)cc1)c1ccc([N+](=O)[O-])o1 [Compound 8] | – | > 25 µM | > 3 | > 313 | –
O=C(Nc1ccc(S(=O)(=O)N2CCC3(CCCCC3)CC2)cc1)c1ccc([N+](=O)[O-])s1 [Compound 24] | – | > 25 µM | > 250 | > 1250 | –
